The test system of data set [1] is γ-H2AX. Briefly: γ-H2AX positive cells by flow cytometry. It counts as cell-based. The settings on record: NCI-H1703. The source says: To confirm the above observations, percentage of γ-H2AX positive cells was quantified using flow cytometry.
A general note: A flow cytometer gives signals particle by particle.

In the next data set the target is IGFR (Homo sapiens, UniProt P08069). Particulars: cellular; read-out: IC50, cellular IGFR ligand-induced phosphorylation; cited from earlier work.
The subject of data set [2] is γ-H2AX. Briefly: γ-H2AX by Western Blot. The format is cell-based. Particulars: NCI-H1703. On the technique in general: Immunoblotting shows a protein as a band on a membrane.
Data set [3] has as its system FGFR1-amplified lung cancer cells. The settings on record: in combination with FGFR inhibitors; cited from earlier work.
Data set [4] deals with cleaved caspase-3. Kind of data set: cleaved-caspase-3 positive cells by flow cytometry. The format is cell-based. The settings on record: NCI-H1703; 24 h and 48 h; onvansertib 50 nM, AZD4547 2.5 μM.
Data set [5] relates to NCI-H1703 cells. Briefly: cell cycle analysis. It counts as cell-based. The settings on record: 48 hrs, onvansertib 50 nM, AZD4547 2.5 μM. As to the method:
(§1) The percentage of pHH3 positive cells was also determined using flow cytometry at 24 h and 48 h.

A further data set concerns NPM at Threonine 199. Briefly: phosphorylation of NPM at Threonine 199. It counts as cell-based. The settings on record: NCI-H1703; 6 hrs, 24 hrs and 48 hrs.
The target of a further data set is PLK1 (Homo sapiens, UniProt P53350). The settings on record: among a panel of 296 kinases, including other PLK members; cited from earlier work.
The test system of data set [6] is NCI-H1703 cells. Briefly: colony forming capacity, crystal violet staining. It counts as cell-based. The settings on record: onvansertib 50 nM, AZD4547 250 nM. The text has this: The culture media was changed again after 3 days. After culturing for another 6 days, the NCI-H1703 cells were stained with crystal violet. The workflow of determining colony forming capacity is illustrated in FIG. 21. […] The colonies formed by NCI-H1703 cells shown in FIG. 22 were quantified as indicated by percentage relative intensity (FIG. 23).

The conditions of data set [7]: patients, cited from earlier work.
For another data set, the system named is AML cell lines. Particulars: cited from earlier work.
In data set [8] the test system is phosphorylated histone H3 (pHH3). Briefly: pHH3 positive cells by flow cytometry. It counts as cell-based. The settings on record: NCI-H1703. As to the method:
as §1

The test system of data set [9] is cleaved caspase-3. Briefly: cleaved caspase-3 by Western Blot. It counts as cell-based. The settings on record: NCI-H1703; 24 h and 48 h; onvansertib 50 nM, AZD4547 2.5 μM. As to the method: In addition, the amounts of cleaved caspase-3 and cleaved PARP were determined at 6 h, 24 h and 48 h after different treatments using Western Blot.
[10] abbreviates: time point not given, compared to DMSO.
[11] abbreviates: time point not given, compared to cells receiving no treatment.
The mark [12] stands for this setting: 24 h and 48 h, onvansertib 50 nM, AZD4547 2.5 μM.

The IC50 is the concentration needed to halve the response being measured.

Chain of PLK1 (P53350 whole entry): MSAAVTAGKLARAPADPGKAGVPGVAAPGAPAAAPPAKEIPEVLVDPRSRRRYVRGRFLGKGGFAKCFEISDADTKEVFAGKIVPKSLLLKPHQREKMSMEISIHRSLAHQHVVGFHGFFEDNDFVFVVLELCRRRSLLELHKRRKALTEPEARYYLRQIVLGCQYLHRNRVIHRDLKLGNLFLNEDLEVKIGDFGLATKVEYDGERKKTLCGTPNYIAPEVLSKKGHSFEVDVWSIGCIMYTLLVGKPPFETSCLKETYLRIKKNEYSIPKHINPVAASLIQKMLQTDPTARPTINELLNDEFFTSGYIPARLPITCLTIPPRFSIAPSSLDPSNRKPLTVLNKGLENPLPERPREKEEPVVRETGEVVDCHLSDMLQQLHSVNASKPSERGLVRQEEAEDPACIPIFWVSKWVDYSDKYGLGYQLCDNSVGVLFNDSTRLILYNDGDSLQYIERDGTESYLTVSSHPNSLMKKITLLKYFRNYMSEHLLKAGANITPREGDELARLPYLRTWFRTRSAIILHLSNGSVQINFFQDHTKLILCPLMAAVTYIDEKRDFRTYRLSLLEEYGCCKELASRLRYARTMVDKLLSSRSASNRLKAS
Chain of IGFR (P08069 31-1367): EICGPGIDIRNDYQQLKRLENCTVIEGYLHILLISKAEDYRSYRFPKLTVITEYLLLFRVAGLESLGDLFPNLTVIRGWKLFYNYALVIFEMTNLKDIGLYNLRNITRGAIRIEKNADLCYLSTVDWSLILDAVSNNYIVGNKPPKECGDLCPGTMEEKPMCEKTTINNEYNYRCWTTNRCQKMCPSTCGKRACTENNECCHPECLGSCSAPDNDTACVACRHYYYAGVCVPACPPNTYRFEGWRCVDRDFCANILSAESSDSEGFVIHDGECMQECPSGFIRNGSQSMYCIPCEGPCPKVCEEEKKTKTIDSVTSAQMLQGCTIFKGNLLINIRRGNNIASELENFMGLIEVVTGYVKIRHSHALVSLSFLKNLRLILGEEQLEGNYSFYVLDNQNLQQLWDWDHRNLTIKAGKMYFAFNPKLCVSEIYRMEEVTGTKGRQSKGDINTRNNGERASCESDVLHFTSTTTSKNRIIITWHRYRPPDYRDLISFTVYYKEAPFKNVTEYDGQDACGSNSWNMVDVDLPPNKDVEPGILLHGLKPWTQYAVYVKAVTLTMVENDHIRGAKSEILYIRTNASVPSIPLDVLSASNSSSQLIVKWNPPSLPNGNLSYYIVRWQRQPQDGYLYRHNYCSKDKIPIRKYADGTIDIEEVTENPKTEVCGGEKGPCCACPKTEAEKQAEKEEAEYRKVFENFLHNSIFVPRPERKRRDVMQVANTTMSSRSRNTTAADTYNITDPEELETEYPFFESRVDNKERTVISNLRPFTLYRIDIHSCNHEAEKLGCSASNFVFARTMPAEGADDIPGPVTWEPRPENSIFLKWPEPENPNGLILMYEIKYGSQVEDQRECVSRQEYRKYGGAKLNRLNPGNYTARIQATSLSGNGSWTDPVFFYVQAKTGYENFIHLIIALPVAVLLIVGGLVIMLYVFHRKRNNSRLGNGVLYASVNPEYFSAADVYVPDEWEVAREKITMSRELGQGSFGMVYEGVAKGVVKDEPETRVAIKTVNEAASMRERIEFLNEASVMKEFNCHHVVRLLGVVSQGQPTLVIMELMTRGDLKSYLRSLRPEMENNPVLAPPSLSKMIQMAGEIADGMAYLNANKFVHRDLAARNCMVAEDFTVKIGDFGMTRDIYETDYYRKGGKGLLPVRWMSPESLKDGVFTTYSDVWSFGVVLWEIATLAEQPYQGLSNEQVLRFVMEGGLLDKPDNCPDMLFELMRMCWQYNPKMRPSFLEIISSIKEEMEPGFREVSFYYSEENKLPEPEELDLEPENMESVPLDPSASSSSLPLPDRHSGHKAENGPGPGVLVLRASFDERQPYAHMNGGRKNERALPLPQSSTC

`COc1cc(CCc2cc(NC(=O)c3ccc(N4C[C@@H](C)N[C@@H](C)C4)cc3)n[nH]2)cc(OC)c1` [AZD4547, N-[5-[2-(3,5-Dimethoxyphenyl)ethyl]-2H-pyrazol-3-yl]-4-(3,5-diemthylpiperazin-1-yl)benzamide]: the “percentage of γ-H2AX positive cells” value in the data set with γ-H2AX [1] (setting [10]) is “about the same”. Moreover, the concentration for half-maximal inhibition (IC50) on IGFR is 0.828 µM. Also, the “amounts of γ-H2AX” value in the data set on γ-H2AX [2] (setting [11]) is listed as “about the same”.
For `CC[C@@H]1C(=O)N(C)c2cnc(Nc3ccc(C(=O)NC4CCN(C)CC4)cc3OC)nc2N1C1CCCC1` [BI2536], the “antiproliferative effects and apoptosis” value in [3] was “synergistically enhances antiproliferative effects and apoptosis”.
In the case of `CN1CCN(c2ccc(OC(F)(F)F)c(Nc3ncc4c(n3)-c3c(c(C(N)=O)nn3CCO)CC4)c2)CC1` [onvansertib, 1-(2-hydroxyethyl)-8-{[5-(4-methylpiperazin-1-yl)-2-(trifluoromethoxy)phenyl]amino}-4,5-dihydro-1H-pyrazolo[4,3-h] quinazoline-3-carboxamide], the figures for the “percentage of γ-H2AX positive cells” value in the data set with γ-H2AX [1] (setting [12]) and with γ-H2AX [1] (setting [10]) were “increased the percentage of γ-H2AX positive cells” and “about the same”, respectively. Moreover, in the data set on cleaved caspase-3 [4], the “percentage of cleaved-caspase-3 positive cells” value was “increased the percentage of cleaved-caspase-3 positive cells”. The “% of cells in G2 and/or mitotic stages” value in the data set on NCI-H1703 cells [5] is given as “increased the % of cells in G2 and/or mitotic stages”. Further, the “phosphorylation of NPM at Threonine 199” value in the data set with NPM at Threonine 199 was “Increased phosphorylation of NPM”. In addition, the “specificity for PLK1” value on PLK1 is reported as “high specificity”. The colony-forming capacity entry with NCI-H1703 cells [6] is on record as “reduced the colony-forming capacity”. Further, the primary dose-limiting toxicities result in data set [7] (phase I dose-escalation) was “neutropenia and thrombocytopenia”. In addition, in data set [7] (reversible toxicities, phase I), the “recovery of hematologic toxicities” value was at most 3 weeks. The “amounts of γ-H2AX” value is given as “increased the γ-H2AX” with γ-H2AX [2] (setting [12]) and “about the same” in the data set on γ-H2AX [2] (setting [11]). Further, the “inhibition of cell proliferation” value in the data set on AML cell lines is “inhibited cell proliferation at nanomolar concentrations”. The “percentage of pHH3 positive cells” value in data set [8] (24 h) is recorded as “increased the percentage of pHH3 positive cells”; in data set [8] (48 h), “increased the percentage of pHH3 positive cells to a similar extent”. Moreover, the “amount of cleaved caspase-3” value in the data set on cleaved caspase-3 [9] is recorded as “increased the cleaved caspase-3”.

The record behind these values is US11957677B2, “Cancer treatment using FGFR inhibitors and PLK1 inhibitors” (Cardiff Oncology, Inc., priority 2021, dated 2024).
